# Measurements from patent US20180186823A1, “PLATINUM COMPOUNDS, COMPOSITIONS, AND USES THEREOF” (PLACON THERAPEUTICS, INC., priority 2015, published 2018).
# Where two headings read alike, the source gives them in different places.
# Tests used:
# Calu-6 NSCLC xenografts = assay: Tumor growth inhibition in Calu-6 NSCLC xenografts in nude mice; type: in vivo, mouse; details: dose not given
# From the text: (§1) Tumor measurements were taken twice weekly, using vernier calipers.
# H460 cells = assay: In vitro inhibition of cell proliferation (CellTiter-Glo); type: cell-based, human; details: 48 hours treatment; starting dose 20 uM, three-fold dilutions
# Description: Human cancer cell lines were plated in 96 well plates (Costar) and 24 hours later were treated with a compound for 48-72 hours. Specifically, H460 cells (ATCC) were plated at a concentration of 1,500 cells per well and compound treatment was carried out for 48 hours. Compound starting dose was 20 uM and three-fold serial dilutions were done for a total of ten points. Inhibition of cell proliferation was measured using CellTiter-Glo® reagent using the standard protocol (Promega) and a Glomax® multi+detection system (Promega). Percent proliferation inhibition was calculated using the following formula: % inhibition=(control-treatment)/control*100. Control is defined as vehicle alone. IC50 curves were generated using the nonlinear regression analysis (four parameter) with GraphPad Prism 6.
# A2780 ovarian xenografts = assay: Tumor growth inhibition in A2780 ovarian xenografts in nude mice; type: in vivo, mouse; details: for TGI %: dose not given; for TGI % compared to cisplatin and oxaliplatin (FIG. 17): in vivo screen, A2780 model
# From the text: as §1
# [1] = Tumor platinum levels (ICP-MS) in H460 tumor-bearing nude mice; type: in vivo, mouse
# Description: To examine the ability of compounds disclosed herein to accumulate in tumors, a murine cancer model was used. Animals were inoculated with 5×10^5 H460 […] lung cancer cells via subcutaneous injection to the flank. Tumors were allowed to reach an approximate volume of ˜500 mm^3. Animals were then randomized into treatment groups of 3 animals per time point and were dosed at 4 mg/kg. The 24-hour time point was used as a benchmark across compounds.
# Tumor platinum levels were determined by inductively coupled plasma mass spectrometry (ICP-MS). Tumors were excised from animals and dissolved in fuming nitric acid (60% w/w) by adding four parts nitric acid to 1 part tumor w/w and heating overnight at 60° C. The resulting digest was diluted 1:10 in ICP-MS analysis buffer (1% nitric acid, 2% Triton® X-100), and directly introduced into the ICP-MS unit by peristaltic pump. The end dilution factor for the samples as introduced to the ICP-MS was 50×.
# [2] = system: MX-1 human breast cancer xenograft; type: in vivo, mouse; details: for % T/C (mean tumor volume) / % T/C (median tumor volume) / Mean tumor volume / Median tumor volume: days 1, 5, 8, 12
# From the text: MX-1 cell line is estrogen receptor negative and Her2 normal. It is generic and BRCA1 and BRCA2 mutant: BRCA1 truncating mutation (3363delGAAA) and BRCA2 mutations (16864A>C, Asn289His, and 22184A>G, Asn991Asp). Average tumor volumes and platinum levels in the tumors were shown in FIG. 29 and Table 9. % T/C in Table 9 is the tumor to control ratio, i.e., the size of tumor divided by the size of tumor control. The lower % T/C is, the higher TGI % is.
# Rat toxicology study = type: in vivo
# NCI-H520 = assay: Multiple-dose efficacy study in lung cancer (NSCLC) model NCI-H520; type: in vivo; details: 15 mg/kg
# Description: Tumor volumes and platinum levels were tracked over a course of 32 days after treatment of multiple doses of compound 8 (dosed at days 0, 3, 7 and 10) in lung cancer (NSCLC) model NCI-H520. Compound 8 was dosed at 15 mg/kg.
# Cell dedifferentiation and apoptosis were studied with immunohistochemical (IHC) and TUNEL stainings.
# [3] = Table 6 study, Calu-6 xenografts
# [4] = Table 5 study, A2780 xenografts
# [5] = H460 tumors, dosed at 4 mg/kg, 24-hour time point
# [6] = nude, mouse, in vivo, 4 mg/kg, 24 h
molecule,measurement,setting,value
N.N.[Cl][Pt][Cl] [Cisplatin],TGI %,"Calu-6 NSCLC xenografts; Table 4 study, comparators",91.4%
same,TGI %,Calu-6 NSCLC xenografts; [3],94.57%
same,IC50,H460 cells,2 µM
same,TGI %,"A2780 ovarian xenografts; Table 2 study, comparators",54.5%
same,TGI %,"A2780 ovarian xenografts; Table 3 study, comparators",44.2%
same,TGI %,A2780 ovarian xenografts; [4],53.04%
same,Platinum in tumor (mM/mmole/kg platinum dosed),[1]; [5],0.27 mM/mmole/kg platinum dosed
same,% T/C (mean tumor volume),"[2]; Day 1, 3 mg/kg",100.6%
same,% T/C (median tumor volume),"[2]; Day 1, 3 mg/kg",105.5%
same,Mean tumor volume,"[2]; Day 1, 3 mg/kg",153.6 mm^3
same,Median tumor volume,"[2]; Day 1, 3 mg/kg",155.2 mm^3
same,% T/C (mean tumor volume),"[2]; Day 5, 3 mg/kg",96.2%
same,% T/C (median tumor volume),"[2]; Day 5, 3 mg/kg",107.3%
same,Mean tumor volume,"[2]; Day 5, 3 mg/kg",343.7 mm^3
same,Median tumor volume,"[2]; Day 5, 3 mg/kg",350.2 mm^3
same,% T/C (mean tumor volume),"[2]; Day 8, 3 mg/kg",39.3%
same,% T/C (median tumor volume),"[2]; Day 8, 3 mg/kg",42.9%
same,Mean tumor volume,"[2]; Day 8, 3 mg/kg",251.2 mm^3
same,Median tumor volume,"[2]; Day 8, 3 mg/kg",266.3 mm^3
same,% T/C (mean tumor volume),"[2]; Day 12, 3 mg/kg",4.9%
same,% T/C (median tumor volume),"[2]; Day 12, 3 mg/kg",5.4%
same,Mean tumor volume,"[2]; Day 12, 3 mg/kg",57.6 mm^3
same,Median tumor volume,"[2]; Day 12, 3 mg/kg",57.6 mm^3
same,TGI % Day 15,"[2]; Day 15, 3 mg/kg",98.6%
same,% T/C (mean tumor volume),"[2]; Day 15, 3 mg/kg",1.4%
same,% T/C (median tumor volume),"[2]; Day 15, 3 mg/kg",1.5%
same,Mean tumor volume,"[2]; Day 15, 3 mg/kg",26.7 mm^3
same,Median tumor volume,"[2]; Day 15, 3 mg/kg",29.7 mm^3
CCNC(=O)[O][Pt]([NH2])([NH2])([Cl])([Cl])[O]C(=O)CCCCCN1C(=O)C=CC1=O [Compound 7],Platinum in tumor (mM/mmole/kg platinum dosed),[1]; [6],0.51 mM/mmole/kg platinum dosed
CC(=O)[O][Pt]([NH2])([NH2])([Cl])([Cl])[O]C(=O)NCCCCCN1C(=O)C=CC1=O [Compound 8],kidney toxicity (blood markers and histopathology) compared to cisplatin,Rat toxicology study; at a higher dose of platinum,improvement in kidney toxicity compared to cisplatin
same,other histopathology findings,"Rat toxicology study; rat, in vivo",No other histopathology findings
same,TGI % compared to cisplatin and oxaliplatin (FIG. 17),A2780 ovarian xenografts,superior TGI % to cisplatin and oxaliplatin
same,Platinum in tumor (mM/mmole/kg platinum dosed),[1]; [6],0.51 mM/mmole/kg platinum dosed
same,tumor outcome at day 15 (in words),[2]; day 15,Tumor disappeared
same,tumor growth inhibition versus cisplatin,"NCI-H520; days 0, 3, 7 and 10, cisplatin 3 mg/kg, 32 days",superior tumor growth inhibition than cisplatin
same,"apoptosis and dedifferentiation in tumors (IHC, TUNEL)",NCI-H520; images from day 10,significant and sustained increase in apoptosis and dedifferentiation
COCC(=O)[O][Pt]([NH2])([NH2])([Cl])([Cl])[O]C(=O)CCCCCN1C(=O)C=CC1=O [Compound 9],Platinum in tumor (mM/mmole/kg platinum dosed),[1]; [6],0.53 mM/mmole/kg platinum dosed
CC(=O)[O][Pt]([NH2])([NH2])([Cl])([Cl])[O]C(=O)CCCCCN1C(=O)C=CC1=O [Compound 11],TGI % compared to cisplatin and oxaliplatin (FIG. 17),A2780 ovarian xenografts,superior TGI % to cisplatin and oxaliplatin
same,Platinum in tumor (mM/mmole/kg platinum dosed),[1]; [6],0.68 mM/mmole/kg platinum dosed
O=C1[O][Pt]2([NH][C@@H]3CCCC[C@H]3[NH]2)[O]C1=O [Oxaliplatin],TGI %,"Calu-6 NSCLC xenografts; Table 4 study, comparators",56.7%
same,TGI %,Calu-6 NSCLC xenografts; [3],21.19%
same,TGI %,"A2780 ovarian xenografts; Table 2 study, comparators",45.9%
same,TGI %,"A2780 ovarian xenografts; Table 3 study, comparators",40.1%
same,TGI %,A2780 ovarian xenografts; [4],43.75%
same,Platinum in tumor (mM/mmole/kg platinum dosed),[1]; [5],0.12 mM/mmole/kg platinum dosed
"acetate 6-(2,5-dioxo-2H-pyrrol-1(5H)-yl) hexanoate oxaliplatin [Compound 1]",TGI % compared to cisplatin and oxaliplatin (FIG. 17),A2780 ovarian xenografts,superior TGI % to cisplatin and oxaliplatin
same,Platinum in tumor (mM/mmole/kg platinum dosed),[1]; [5],0.57 mM/mmole/kg platinum dosed
